Assay results: patent publication US20230150979A1, “AMIDE-DISUBSTITUTED PYRIDINE OR PYRIDAZINE COMPOUNDS” (BRISTOL-MYERS SQUIBB COMPANY, priority 2019, published 2023)

These molecules were tested on IFNα-induced STAT phosphorylation (pSTAT5) in human whole blood, CD3 positive population (assay: IFNα-Induced STAT Phosphorylation in Human Whole Blood). Settings: 1 h incubation with compound, 1000 U/mL recombinant human IFNα A/D for 15 min, pSTAT5 (pY694) median fluorescence in CD3 positive cells, read-out: Human WB IFNα-Induced Stat Phosph. (IC50).
Format: cell-based
Description: IFNα-Induced STAT Phosphorylation in Human Whole Blood
After an hour long incubation with compound, human whole blood (drawn with either EDTA or ACD-A as anti-coagulant) was stimulated with 1000 U/mL recombinant human IFNα A/D (R&D Systems 11200-2) for 15 min. The stimulation was stopped by adding Fix/Lyse buffer (BD 558049). Cells were stained with a CD3 FITC antibody (BD 555916), washed, and permeabilized on ice using Perm III buffer (BD 558050). Cells were then stained with an Alexa-Fluor 647 pSTAT5 (pY694) antibody (BD 612599) for 30 min prior to analysis on the FACS Canto II. The amount of pSTAT5 expression was quantitated by median fluorescence intensity after gating on the CD3 positive population.

| SMILES | IC50 [nM] |
| --- | --- |
| [2H]C([2H])([2H])NC(=O)c1nnc(NC(=O)OC)cc1Nc1cccc(-c2ncc(C(=O)N(C)C)s2)c1OC [Example 53] | 840 |
| [2H]C([2H])([2H])NC(=O)c1nnc(NC(=O)OC)cc1Nc1cccc(-c2noc(CCS(C)(=O)=O)n2)c1OC [Example 69] | 1030 |
| [2H]C([2H])([2H])NC(=O)c1nnc(NC(=O)N(C)C2CC2)cc1Nc1cccc(-c2ncn(C)n2)c1OC [Example 46] | 2210 |
| [2H]C([2H])([2H])NC(=O)c1cnc(NC(=O)OC)cc1Nc1cccc(-c2noc(C)n2)c1OC [Example 73] | 770 |
| [2H]C([2H])([2H])NC(=O)c1cnc(NC(=O)OCC)cc1Nc1cccc(-c2ncn(C)n2)c1OC [Example 29] | 110 |
| CNC(=O)c1cnc(NC(=O)Nc2ccccc2)cc1Nc1ccccc1S(C)(=O)=O [Example 6, N-methyl-4-((2-(methylsulfonyl)phenyl)amino)-6-(3-phenylureido)nicotinamide] | > 10000 |
| [2H]C([2H])([2H])NC(=O)c1nnc(NC(=O)NCC#C)cc1Nc1cccc(-c2ncn(C)n2)c1OC [Example 11] | 60 |
| [2H]C([2H])([2H])NC(=O)c1nnc(NC(=O)N(C)CCOC)cc1Nc1cccc(-c2ncn(C)n2)c1OC [Example 43] | 570 |
| [2H]C([2H])([2H])NC(=O)c1nnc(NC(=O)N(C)C)cc1Nc1cccc(-c2ncn(C)n2)c1OC [Example 22] | 220 |
| [2H]C([2H])([2H])NC(=O)c1nnc(NC(=O)N(C)CCC)cc1Nc1cccc(-c2ncn(C)n2)c1OC [Example 44] | 330 |
| [2H]C([2H])([2H])NC(=O)c1nnc(NC(=O)OC)cc1Nc1cccc(-c2noc(CO)n2)c1OC [Example 58] | 1860 |
| [2H]C([2H])([2H])NC(=O)c1nnc(NC(=O)NC2CCCCC2)cc1Nc1cccc(-c2ncn(C)n2)c1OC [Example 33] | 120 |
| [2H]C([2H])([2H])NC(=O)c1nnc(NC(=O)Nc2cccc(C)c2)cc1Nc1cccc(-c2ncn(C)n2)c1OC [Example 35] | 500 |
| [2H]C([2H])([2H])NC(=O)c1nnc(NC(=O)NCCOC)cc1Nc1cccc(-c2ncn(C)n2)c1OC [Example 27] | 140 |
| [2H]C([2H])([2H])NC(=O)c1nnc(NC(=O)OC)cc1Nc1cccc(-c2noc(CN3CCCCS3(=O)=O)n2)c1OC [Example 61] | 60 |
| [2H]C([2H])([2H])NC(=O)c1nnc(NC(=O)N(C)CC)cc1Nc1cccc(-c2ncn(C)n2)c1OC [Example 42] | 350 |
| [2H]C([2H])([2H])NC(=O)c1nnc(N2CCOC2=O)cc1Nc1cccc(-c2ncc(N3CCOC3=O)cn2)c1OC [Example 20] | > 10000 |
| COC(=O)Nc1cc(Nc2cccc(-c3noc(CN4CCCCS4(=O)=O)n3)c2OC)c(C(N)=O)nn1 [Example 54] | 30 |
| [2H]C([2H])([2H])NC(=O)c1nnc(NC(=O)OC)cc1Nc1cccc(-c2noc(C)n2)c1OC [Example 63] | 970 |
| COC(=O)Nc1cc(Nc2cccc(-c3noc(CN(C)S(C)(=O)=O)n3)c2OC)c(C(N)=O)nn1 [Example 51] | 90 |
| [2H]C([2H])([2H])NC(=O)c1cnc(NC(=O)NC)cc1Nc1cccc(-c2noc(C)n2)c1OC [Example 74] | 210 |
| [2H]C([2H])([2H])NC(=O)c1cnc(NC(=O)OCC)cc1Nc1cccc(-c2nnn(C)n2)c1OC [Example 21] | 420 |
| [2H]C([2H])([2H])NC(=O)c1cnc(NC(=O)OC(C)C)cc1Nc1cccc(-c2ncn(C)n2)c1OC [Example 32] | 200 |
| [2H]C([2H])([2H])NC(=O)c1cnc(NC(=O)NCC)cc1Nc1cccc(-c2noc(C)n2)c1OC [Example 72] | 140 |
| [2H]C([2H])([2H])NC(=O)c1cnc(NC(=O)OC)cc1Nc1cccc(-c2noc(CN3CCOCC3)n2)c1OC [Example 71] | 300 |
| [2H]C([2H])([2H])NC(=O)c1nnc(NC(=O)NC)cc1Nc1cccc(-c2ncn(C)n2)c1OC [Example 45] | 80 |

More lines, now with the values ahead:

| IC50 [nM] | SMILES |
| --- | --- |
| 160 | [2H]C([2H])([2H])NC(=O)c1cnc(NC(=O)NCCOC)cc1Nc1cccc(-c2noc(C)n2)c1OC [Example 76] |
| 200 | [2H]C([2H])([2H])NC(=O)c1nnc(NC(=O)OC)cc1Nc1cccc(-c2noc(CN3CCCS3(=O)=O)n2)c1OC [Example 68] |
| 2460 | [2H]C([2H])([2H])NC(=O)c1nnc(NC(=O)N(C)CCc2ccccc2)cc1Nc1cccc(-c2ncn(C)n2)c1OC [Example 39] |
| 230 | [2H]C([2H])([2H])NC(=O)c1nnc(NC(=O)NC(C)(C)C)cc1Nc1cccc(-c2ncn(C)n2)c1OC [Example 24] |
| 470 | [2H]C([2H])([2H])NC(=O)c1nnc(NC(=O)NCCN(C)C)cc1Nc1cccc(-c2ncn(C)n2)c1OC [Example 75] |
| 60 | [2H]C([2H])([2H])NC(=O)c1nnc(NC(=O)NCC=C)cc1Nc1cccc(-c2ncn(C)n2)c1OC [Example 37] |
| 290 | [2H]C([2H])([2H])NC(=O)c1nnc(NC(=O)OC)cc1Nc1cccc(-c2noc(CN3CCOCC3)n2)c1OC [Example 59] |
| 290 | [2H]C([2H])([2H])NC(=O)c1nnc(NC(=O)NCc2ccccc2)cc1Nc1cccc(-c2ncn(C)n2)c1OC [Example 40] |
| 190 | [2H]C([2H])([2H])NC(=O)c1nnc(NC(=O)NC)cc1Nc1cccc(-c2noc(C)n2)c1OC [Example 3, 4-((2-methoxy-3-(5-methyl-1,2,4-oxadiazol-3-yl)phenyl)amino)-N-(trideuteromethyl)-6-(3-methylureido)pyridazine-3-carboxamide] |
| > 10000 | [2H]C([2H])([2H])NC(=O)c1nnc(NC(=O)OC)cc1Nc1ccccc1S(C)(=O)=O [Example 4, methyl (6-((methyl-d3)carbamoyl)-5-((2-(methylsulfonyl)phenyl)amino)pyridazin-3-yl)carbamate] |
| 270 | COC(=O)Nc1cc(Nc2cccc(-c3noc(C)n3)c2OC)c(C(N)=O)nn1 [Example 67] |
| 300 | [2H]C([2H])([2H])NC(=O)c1cnc(NC(=O)OCC)cc1Nc1cccc(-c2noc(C)n2)c1OC [Example 8] |
| 760 | [2H]C([2H])([2H])NC(=O)c1nnc(NC(=O)OC)cc1Nc1cccc(-c2ncc(C(=O)N3CCC3)s2)c1OC [Example 55] |
| 150 | [2H]C([2H])([2H])NC(=O)c1nnc(NC(=O)NC(C)C)cc1Nc1cccc(-c2ncn(C)n2)c1OC [Example 18] |
| 70 | COC(=O)Nc1cc(Nc2cccc(-c3ncn(C)n3)c2OC)c(C(N)=O)nn1 [Example 1, Methyl (6-carbamoyl-5-((2-methoxy-3-(1-methyl-1H-1,2,4-triazol-3-yl)phenyl)amino)pyridazin-3-yl)carbamate] |
| > 10000 | [2H]C([2H])([2H])NC(=O)c1nnc(NC(=O)OC)cc1Nc1ccccc1NS(C)(=O)=O [Example 52] |
| 250 | [2H]C([2H])([2H])NC(=O)c1nnc(NC(=O)OC)cc1Nc1cccc(-c2ncc(C(=O)N3CCC(N4CCN(CCO)CC4)CC3)s2)c1OC [Example 57] |

| IC50 [nM] | SMILES |
| --- | --- |
| 1100 | CCNC(=O)Nc1cc(Nc2ccccc2S(C)(=O)=O)c(C(=O)NC)cn1 [Example 9] |
| > 10000 | [2H]C([2H])([2H])NC(=O)c1nnc(NC(=O)N2CCNCC2)cc1Nc1cccc(-c2ncn(C)n2)c1OC [Example 28] |
| 110 | COC(=O)Nc1cc(Nc2cccc(-c3noc(CN4CCOCC4)n3)c2OC)c(C(N)=O)nn1 [Example 56] |
| 210 | [2H]C([2H])([2H])NC(=O)c1nnc(NC(=O)NC2CC2)cc1Nc1cccc(-c2noc(C)n2)c1OC [Example 77] |
| 1100 | [2H]C([2H])([2H])NC(=O)c1nnc(NC(=O)OC)cc1Nc1cccc(-c2noc(COC)n2)c1OC [Example 14] |
| 150 | [2H]C([2H])([2H])NC(=O)c1cnc(NC(=O)OCCC)cc1Nc1cccc(-c2ncn(C)n2)c1OC [Example 50] |
| 520 | [2H]C([2H])([2H])NC(=O)c1nnc(NC(=O)Nc2ccccc2)cc1Nc1cccc(-c2ncn(C)n2)c1OC [Example 34] |
| 100 | COC(=O)Nc1cc(Nc2cccc(-c3noc(CN4CCN(S(C)(=O)=O)CC4)n3)c2OC)c(C(N)=O)nn1 [Example 64] |
| 190 | [2H]C([2H])([2H])NC(=O)c1nnc(NC(=O)N(C)Cc2ccco2)cc1Nc1cccc(-c2ncn(C)n2)c1OC [Example 49] |
| 3690 | CNC(=O)Nc1cc(Nc2ccccc2S(C)(=O)=O)c(C(=O)NC)cn1 [Example 10] |
| 1180 | [2H]C([2H])([2H])NC(=O)c1nnc(NC(=O)Nc2ccccn2)cc1Nc1cccc(-c2ncn(C)n2)c1OC [Example 25] |
| 1150 | [2H]C([2H])([2H])NC(=O)c1nnc(NC(=O)OC)cc1Nc1cccc(-c2noc(CN3CCOC3=O)n2)c1OC [Example 70] |
| 320 | [2H]C([2H])([2H])NC(=O)c1nnc(NC(N)=O)cc1Nc1cccc(-c2ncn(C)n2)c1OC [Example 7, 4-((2-methoxy-3-(1-methyl-1H-1,2,4-triazol-3-yl)phenyl)amino)-N-(methyl-d3)-6-ureidopyridazine-3-carboxamide] |
| 20 | [2H]C([2H])([2H])NC(=O)c1nnc(NC(=O)NCC)cc1Nc1cccc(-c2ncn(C)n2)c1OC [Example 16] |
| 750 | [2H]C([2H])([2H])NC(=O)c1nnc(NC(=O)OC)cc1Nc1ccccc1NS(=O)(=O)C1CC1 [Example 5, methyl (5-((2-(cyclopropanesulfonamido)phenyl)amino)-6-((methyl-d3)carbamoyl)pyridazin-3-yl)carbamate] |
| 130 | [2H]C([2H])([2H])NC(=O)c1nnc(NC(=O)OC)cc1Nc1cccc(-c2noc(CN3CCN(S(C)(=O)=O)CC3)n2)c1OC [Example 66] |
